# In patent US9212204B2, “Treatment of rett syndrome using glycyl-L-2-methylprolyl-L-glutamic acid” (priority 2011, dated 2015):
# Non-standard residues stand in square brackets, D forms with d. Residues, ends and D or L forms follow the SMILES beside them. αMeP = C[C@@]1(C(=O)O)CCCN1
# Assays:
# 17 month old rats = experiment: 8-arm radial maze test, spatial working memory; type: in vivo, rat; conditions: for Working Correct Choice WCC8-12 across days: 9-day washout
# From the text: Five months after the original experiment the now 17 month old rats were retested for spatial working memory in a radial arm maze.
# The apparatus consists of a central platform communicating with 8 identical arms, each with a food cup at the end of the arm
# Rats were partially food-deprived for at least 10 days prior to, and throughout the radial maze procedure.
# The maze was assembled and positioned so that the experimenter could clearly observe the rats' behavior from a predetermined location. The experimenter numbered the arms of the maze according to their orientation from one to eight in a clock-wise direction.
# On day one the doors were inserted into the arms and each rat was confined in the central platform with 20 food pellets for 5 minutes. […] The following day the rats were allowed five minutes to explore the whole maze. All arms were baited with two food pellets in the food cup located at the end of each arm, and one pellet at both the entrance and middle of each arm. This was repeated for at least five, but up to eight days for rats that explored fewer than eight arms in two consecutive sessions. […] At this point it was decided that one of the old rats that had made only one arm entry on eight of the nine days should be excluded from future testing in this procedure. Otherwise all rats were included regardless of the amount of exploring they performed in pre-training.
# 30 days before the test (five days after pre-training) the 17 Male Wistar month old rats were implanted (under halothane anesthesia) with sub-cutaneous mini-osmotic pumps (Alzet) to dispense drug continuously for 3 weeks. At the completion of the infusion the pumps were removed and the wounds re-sutured (9-day washout allowed).
# 3. G-2-MePE low dose (2.4 mg/kg/day) n=13
# 4. G-2-MePE high dose (12.4 mg/kg/day) n=5
# Saline and the low dose groups are comprised of all the rats that received those treatments in phase 1 of this experiment (when the rats were 12 months old) regardless of whether they had the one or three week treatment. One rat in each of the saline and high dose groups have been dropped because of skin tumors.
# Working memory testing commenced on the ninth day of washout. Rats received 10 daily training sessions over 12 days. The procedure was the same as for pre-training but only the food cups were baited. Rats had 6 minutes to make up to 16 choices by visiting any of the eight arms. A choice was defined as occurring when all four paws were inside an arm. The experimenter recorded the sequence of arm entries with pen and paper, Sessions were terminated after all eight arms had been entered, 16 choices made, or 6 minutes had elapsed. The time taken to enter all eight arms, when this occurred, was recorded.
# An arm choice was considered correct when the rat entered an arm not previously visited. […]
# MeCP2 deficient mice = experiment: Survival of MeCP2 deficient mice after oral administration; type: in vivo, mouse; conditions: 20 or 80 mg/kg daily
# Procedure: Therefore, we administer G-2-MePE orally to MeCP2 deficient mice as described in US 2009/0074865. Briefly, an aqueous solution, a water-in-oil emulsion (micro-emulsion, coarse emulsion or liquid crystal), or a gel composition containing a pharmaceutically effective amount of G-2-MePE (20 or 80 mg/kg per animal) is administered daily. In control MeCP2 deficient animals, we administer saline only, and wild-type animals are used to obtain baseline data similar to the design of studies described in Example 8 above.
# gastrointestinal cells = conditions: cited from earlier work
# [1] = test system: slices of hippocampus from MeCP2 deficient mice; experiment: Hippocampal long-term potentiation in MeCP2 deficient mice; type: in vivo, mouse; conditions: 20 mg/kg/day i.p. from week 4 to week 9; vs saline
# From the text: MeCP2 deficient mice have been previously reported to suffer from functional and ultrastructural synaptic dysfunction, significant impairment of hippocampus-dependent memory and hippocampal long-term potentiation (LTP) (Moretti et al. The Journal of Neuroscience. 2006. 26(1):319-327). To test the effects of the G-2-MePE treatment on synaptic function in the RTT model we compared hippocampal LTP in both vehicle and G-2-MePE treated animals at 9 weeks of age. To do so, we measured the slope of the fEPSP as a % of baseline potential in neurons in slices of hippocampus from MeCP2 deficient mice treated with either saline or G-2-MePE (FIG. 23).
# MeCP2-/y mice = experiment: Heart rate measurements; type: in vivo, mouse; conditions: 8 weeks old, treated from P15
# Procedure: Real time cardiac pulse rate is measured using a tail clip sensor (Mouse OX Oximeter—Oakmont, Pa.). Mice are not anesthetized but physically restrained in a fitted open plastic tube. Prior to the recording session the tube is placed overnight in the cages housing the experimental animals to allow habituation. Body temperature is maintained at ˜82-84° F. throughout the recording time. We record 3 trials of 15 minutes for each mouse, mice are 8 weeks old and treated with vehicle or G-2-MePE from P15.
# To examine heart rate abnormalities in MeCP2−/y mice and the effect of G-2-MePE treatment, we monitor real time cardiac pulse rate in non-anesthetized wild type and MeCP2−/y animals treated with vehicle or G-2-MePE.
smiles,measurement,setting,value
"C[C@@]1(C(=O)N[C@@H](CCC(=O)O)C(=O)O)CCCN1C(=O)CN [Example G-2-MePE, Glycyl-L-2-methylprolyl-L-glutamic acid] (H-Gly-[αMeP]-Glu-OH)",Correct Choice CC8-12,"17 month old rats; all groups, 10 days of testing",no significant group effect
same,Working Correct Choice WCC8-12 across days,17 month old rats; high dose 12.4 mg/kg/day s.c. 3 weeks,greatest improvement across days
same,correct maze choices averaged across days,"17 month old rats; higher dose, vs vehicle treated rats, p<0.05, FIG. 18B",more correct entries
same,Working Correct Choice WCC8-12 across days,"17 month old rats; low dose 2.4 mg/kg/day s.c. 3 weeks, vs saline",very little difference
same,survival,MeCP2 deficient mice,increased substantially
same,degradation by gastrointestinal cells,gastrointestinal cells,not degraded
same,uptake by gastrointestinal cells,gastrointestinal cells,taken up
same,slope of fEPSP (hippocampal LTP),[1],increased
same,occurrence of irregular heart rate with a lower average rate,MeCP2-/y mice,significantly reduced
